Source: patent US8436030B2, “Polymorphic forms of deferasirox (ICL670A)” (Navartis AG, priority 2006, dated 2013)

Experiment: Solubility of solid forms (comparative statement)
Format: physicochemical
Settings: as compared to the crystalline form A or B

Structure (SMILES): O=C(O)c1ccc(-n2nc(-c3ccccc3O)nc2-c2ccccc2O)cc1 [amorphous form, 4-[3,5-bis(2-hydroxyphenyl)-[1,2,4]triazol-1-yl]benzoic acid]
- solubility: highest solubility
